The test system of series [1] is human ovarian cancer cell line ES-2. The series is described as follows: Flow cytometry apoptosis assay of tumor after treatment. Format: in vivo, SCID mice. The conditions noted are these: systematic delivery. (In flow cytometry, cells or beads pass a laser one at a time.)
Source text: A single intraperitoneal injection of human ovarian cancer cell line ES-2 (2×10^5 cells per mouse, ATCC no. CRL-1978) at d0 into 5-week-old SCID mice (CB.17 scid/scid) was commenced to generate tumor, which was confirmed via abdominal distension and malignant ascites in 3 weeks. […] Animals were used in compliance with institutional animal health care regulations, and all animal experimental procedures were approved by the Institutional Animal Care and Use Committee. Tumor-bearing mice were euthanized at the endpoint when there were signs of distress, including fur ruffling, rapid respiratory rate, hunched posture, reduced activity, and progressive ascites formation. Groups of mice were treated. A 2-factor factorial design was implemented with factor 1 (systematic delivery versus regional delivery) and factor 2 (free drug versus nanomedicine). […] The dosing schedule for each paired drugs (free drug and nanomedicine) was given on maximal tolerated dose based on preliminary study.
The subject of the next series is CT-26-luc cells. The series is described as follows: Antitumor activity in colon cancer syngeneic mice model (CT-26-luc i.p., BLI and survival). Format: in vivo, BALB/c mice. How it is done: Tumor cell growth was determined by measuring bioluminescence images (BLI) using IVIS system. Treatments were initiated when the tumor dissemination (judged by luminescence activity) reached baseline. […] Survival of these animals was recorded.
Five-week-old female BALB/c mice were purchased from the National Laboratory Animal Breeding and Research Center of Taipei and maintained in the oncology animal facility of Taipei Veterans General Hospital, Taipei, Taiwan. The animals were used in compliance with the institutional animal health care regulations, and all of the animal experimental procedures were approved by the Institutional Animal Care and Use Committee.
Exact dosing volume was calculated using body weight. Control group was given 100 ul of 0.9% Sodium Chloride Injection.
BALB/c mice (6 weeks) were injected with 1×10^5 CT-26-luc cells in 250 ul opti-MEM by i.p. on Day 0 (D0). After 4 days (D4), tumor cell growth was determined by measuring luminescence activity using IVIS system (baseline). Each group Bioluminescence images (BLI) was normalized by average BLI of total mice before treatment. […] Animals were monitored individually till death for survival evaluation.
The mice were imaged with the IVIS-50 system (Xenogen, Alameda, Calif.).
Overall survival was defined as the time from the date of tumor implantation to the date of death and is presented as the Kaplan-Meier survival curve.

Series [2] has as its system cancer stem cells of ES-2 tumors. The series is described as follows: Cancer stem cell analysis of treated tumors (tumor sphere, side population, RT-PCR). Format: in vivo, SCID mice. As for the experimental part: (8A) Tumor sphere-forming ability of treated tumor. Mouse was implanted with ES-2 cells (2×10^6/mouse) at day 1 and was treated at day 5, day 8, and day 11 at indicated dosage. Tumors were retrieved at day 14 for each indicated group. Tumors were dissociated into single cell suspension and cultured in an ultralow dish for 10 days. […] Representative figures are shown. (8B) Summary of tumor sphere formation (mean±SD). (8C) Flow cytometry analysis of Hoechst 33342-stained cells and identification of side population cells. Percentage of side population cells are shown. (D-G) RT-PCR analysis for the expressions of stemness marker (8D), genes for epithelial-mesenchymal transition (EMT) driver and expression of epithelial or mesenchymal phenotype (8E), genes for tumor angiogenesis (8F), and genes for multidrug resistance (8G). (8H) CXCR4/CXCL12 axis in stem cells maintenance. […] Experiments were repeated in triplicate.

The next series deals with lung metastases. The series is described as follows: Lung metastases model (tail vein injection of tumor cells). It is filed as in vivo, SCID mice.
The subject of series [3] is human ovarian cancer cell line ES-2. It is filed as in vivo. Particulars: regional delivery.
Source text: (§1) Experiments were repeated in triplicate.
as §1, §1, §1, §1

The subject of a further series is recurrent ovarian tumor. The conditions noted are these: HIPEC, 10 mg/kg.
For series [4], the system named is metastatic non-small lung cancer. The conditions noted are these: P=0.271; cited from earlier work.
The conditions of series [5]: human, in vivo, ip; cited from earlier work.
For series [6] the following is noted: hepatic artery infusion; cited from earlier work.

The structures appear in SMILES notation. Like-named read-outs stand apart in the source and are kept apart here.

Method for lung metastases: (7B) Control of lung metastases. Mouse was induced lung metastases by tail vein injection of tumor cells at d1.
Animals were used in compliance with institutional animal health care regulations, and all animal experimental procedures were approved by the Institutional Animal Care and Use Committee. […] Groups of mice were treated. A 2-factor factorial design was implemented with factor 1 (systematic delivery versus regional delivery) and factor 2 (free drug versus nanomedicine). […] The dosing schedule for each paired drugs (free drug and nanomedicine) was given on maximal tolerated dose based on preliminary study. Lung metastases were induced by tail-vein injection, while liver metastases were by splenic injection, and retroperitoneal lymphatic metastases were induced by intra-uterine injection of tumor cells.
Method for recurrent ovarian tumor: Depicted are inflow and outflow ports and anal temperature probe to monitor internal temperature of mouse during perfusion. Mice were perfused for 1 h at the rate of 3 mL/min with Taxol® (10 mg/kg). […] Experiments were repeated in triplicate.

As for `CC(=O)O[C@H]1C(=O)[C@@]2(C)[C@H]([C@H](OC(=O)c3ccccc3)[C@]3(O)C[C@H](OC(=O)[C@H](O)[C@@H](NC(=O)c4ccccc4)c4ccccc4)C(C)=C1C3(C)C)[C@]1(OC(C)=O)CO[C@@H]1C[C@@H]2O` [Taxol®, paclitaxel], the apoptosis of tumor in series [1] turned out to be 23.3%. Also, the “inhibition of colon tumor growth / antitumor activity” value with CT-26-luc cells (10 mg/kg i.p.) is recorded as “did not inhibit colon tumor growth”. Moreover, the median survival day with CT-26-luc cells (10 mg/kg i.p.) is reported as 26 days; with CT-26-luc cells (10 mg/kg i.v.) it was 24 days. The survival duration with CT-26-luc cells (10 mg/kg i.p.) and in the series on CT-26-luc cells (10 mg/kg i.v.) was 27 days in each case. Moreover, in the series on CT-26-luc cells (10 mg/kg i.v.), the “inhibition of colon tumor growth” value is reported as “did not inhibit colon tumor growth”. In series [2] (i.v. delivery), the “CXCR4/CXCL12 expression compared to control group” value is reported as “increased expression of CXCR4/CXCL12”. The “side population cells (Hoechst 33342)” value in series [2] (regional delivery) and in series [2] (systematic delivery) was “increased” each time. For the same compound, the “tumor sphere (microsphere) formation of treated tumor” value in series [2] (systematic (i.v.) delivery, tumors retrieved day 14, cultured 10 days) was “increased microsphere formation”. Further, the entries for the “control of lung metastases” value in the series with lung metastases (regional (intrapleural) delivery) and in the series with lung metastases (systematic delivery) were “some therapeutic efficacy” and “unsatisfactory control of tumor”, respectively. Also, the “therapeutic efficacy (bioluminescence imaging day 14 vs day 4)” value in series [3] (10 mg/kg/mouse, day 5, 8, 11 (FIG. 2B)) is listed as “some efficacy”; in series [3] (10 mg/kg/mouse, day 5, 8, 11 (FIG. 6)), “some efficacy”. Besides, the “complications (bowel obstruction or perforation)” value with recurrent ovarian tumor is “higher”. In addition, in the series on recurrent ovarian tumor (perfused 1 h at 3 mL/min), the “tumor control of recurrent tumor” value is “good tumor control”. Moreover, the median overall survival in [4] is reported as 11.2 months.
As for `N.N.[Cl][Pt][Cl]` [cisplatin], the “therapeutic efficacy (bioluminescence imaging day 14 vs day 4)” value in series [3] (5 mg/kg/mouse, day 5 and 10 (FIG. 3B)) is given as “some therapeutic effect”. For the same compound, the “increased exposure to the peritoneal cavity as compared to the systemic compartment” value in [5] is reported as 20 fold.
As for `COc1cccc2c1C(=O)c1c(O)c3c(c(O)c1C2=O)C[C@@](O)(C(=O)CO)C[C@@H]3O[C@H]1C[C@H](N)[C@H](O)[C@H](C)O1` [doxorubicin], the “therapeutic efficacy (bioluminescence imaging day 14 vs day 4)” value in series [3] (5 mg/kg/mouse, day 5 and 10 (FIG. 5)) is listed as “some therapeutic effect”.
For `O=c1[nH]c(=O)n([C@H]2C[C@H](O)[C@@H](CO)O2)cc1F` [floxuridine], the “higher tumor drug levels as compared to portal vein infusion” value in series [6] is given as 15 fold.
As to `CC[C@@]1(O)C(=O)OCc2c1cc1n(c2=O)Cc2cc3c(CN(C)C)c(O)ccc3nc2-1` [topotecan], the “therapeutic efficacy (bioluminescence imaging day 14 vs day 4)” value in [3] (10 mg/kg/mouse, day 5 and 10 (FIG. 4B)) is reported as “some therapeutic effect”.

The values are drawn from US10016365B2, “Compositions and methods of tumor treatment utilizing nanoparticles” (priority 2015, dated 2018).
